Results on six compounds are retold here after patent US8183237B2, “Benzenesulfonanilide compounds suitable for treating disorders that respond to modulation of the serotonin 5-HT6 receptor” (Abbott Laboratories, priority 2009, dated 2012).

Structures can show the parent of a compound that is named as a salt. Where two headings read alike, the source gives them in different places. A value given as a limit tells only on which side of the number the result lay.

The target in one assay is T1, h-5-HT6 receptor (Homo sapiens, UniProt P50406).
T1 construct: expressed in transfected cells; host or cells: HEK293
T1 sequence (P50406 whole entry): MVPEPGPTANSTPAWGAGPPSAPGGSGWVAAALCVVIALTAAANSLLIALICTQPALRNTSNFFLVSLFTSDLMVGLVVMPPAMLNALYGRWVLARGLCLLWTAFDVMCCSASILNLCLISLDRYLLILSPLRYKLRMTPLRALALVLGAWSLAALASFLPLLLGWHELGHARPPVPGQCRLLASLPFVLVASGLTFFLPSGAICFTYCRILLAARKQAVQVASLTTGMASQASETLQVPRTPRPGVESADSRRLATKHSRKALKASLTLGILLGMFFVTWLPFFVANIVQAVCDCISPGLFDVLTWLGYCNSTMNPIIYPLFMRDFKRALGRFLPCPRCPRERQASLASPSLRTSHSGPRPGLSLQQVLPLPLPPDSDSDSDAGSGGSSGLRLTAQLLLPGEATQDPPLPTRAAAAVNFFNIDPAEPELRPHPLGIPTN
Put plainly: 5-HT6 receptor binding assay (displacement of [3H]-LSD). The procedure:
Displacement of radioligands binding to the following cloned human receptors
(§1) 1. Preparation of Membranes by Ultrasonic Treatment and Differential Centrifugation
Cells from stable clonal cell lines expressing the corresponding receptor (5-HT6, α1-adrenergic, dopamine D2 or histamine H1 receptors) were washed with PBS (w/o Ca^++, Mg^++) and harvested in PBS with 0.02% EDTA. The cells were collected by centrifugation at 500 g for 10 min. at 4° C., washed with PBS and centrifuged (500 g, 10 min. 4° C.). The pellets were stored at −80° C. until use. For membrane preparation, the thawed cell pellet was resuspended in ice-cold sucrose buffer (0.25 M sucrose, 10 mM Hepes (pH 7.4), 1 mM Phenylmethylsulfonyl fluoride (PMSF) in DMSO, 5 μg/ml Pepstatin-A, 3 mM EDTA, 0.025% Bacitracin) and homogenized with a Branson Sonifier W-250 (Settings: Timer 4; Output Control 3; Duty Cycle constant; 2 to 3 cycles). Cell disruption was checked with the aid of a microscope. Remaining unbroken cells were pelleted at 1.000 g for 10 min. at 4° C. The sucrose buffer supernatant was then centrifuged at 60.000 g for 1 h at 4° C. (Beckman Ultrazentrifuge XL 80). The pellet was resuspended in 30 ml ice-cold Tris buffer (20 mM TRIS (pH 7.4), 5 μg/ml Pepstatin A, 0.1 mM PMSF, 3 mM EDTA) by pipetting through a 10 ml serological pipet and centrifuged for 1 h at 4° C. at 60.000 g. A final resuspension was performed in a small volume of ice-cold Tris buffer (see above) by pressing through a serological pipet followed by ultrasonic treatment with a Branson Sonifier W-250 (Settings: Timer 1; Output Control 3; Duty Cycle constant; 1 cycle). Protein concentration was determined (BCA-Kit; Pierce) and aliquots stored at −80° C. or in liquid nitrogen for long-term storage.
(§2) 2. Receptor Binding Experiments
All receptor binding experiments were carried out in the corresponding assay buffer in a total volume of 200 μl in the presence of various concentrations of test compound (10^−5 M to 10^−9 M, tenfold serial dilution, duplicate determinations). The assays were terminated by filtration on polyethylenimine (PEI 0.1% or 0.3%) presoaked Packard Unifilter Plates (GF/C or GF/B) with a Tomtec MachIII U 96 well-plate harvester. After the plates had been dried for 2 h at 55° C. in a drying chamber scintillation cocktail (BetaPlate Scint; PerkinElmer) was added. Radioactivity was measured in a Microbeta Trilux two hours after the addition of the scintillation mixture. Data derived from liquid scintillation counting were analysed by iterative non-linear regression analysis with the use of the Statistical Analysis System (SAS): a program similar to “LIGAND” as described by Munson and Rodbard (Analytical Biochemistry 107, 220-239 (1980).
a) 5-HT6 Receptor Binding Assay
HEK293 cells stably expressing the h-5-HT6 receptor (NCBI Reference Sequence XM 001435) were cultured in RPMI1640 medium supplemented with 25 mM HEPES, 10% fetal calf serum and 1-2 mM glutamine. The membrane preparation was performed as described in section 1. […] Non-specific binding was defined with 1 μM methiothepin. The binding reaction was carried out for 3.5 h at room temperature. […]
Data derived from liquid scintillation counting were analyzed by iterative non-linear regression analysis with the use of the Statistical Analysis System (SAS): a program similar to “LIGAND” as described by Munson and Rodbard (Anal. Biochem. 1980, 107, 220-239). […] IC50, nH and Ki values were expressed as geometrical mean.

The target of a further assay is T2, dopamine D2 receptor (Homo sapiens, UniProt P14416).
T2 construct: expressed in transfected cells; host or cells: HEK293
T2 sequence (P14416 whole entry): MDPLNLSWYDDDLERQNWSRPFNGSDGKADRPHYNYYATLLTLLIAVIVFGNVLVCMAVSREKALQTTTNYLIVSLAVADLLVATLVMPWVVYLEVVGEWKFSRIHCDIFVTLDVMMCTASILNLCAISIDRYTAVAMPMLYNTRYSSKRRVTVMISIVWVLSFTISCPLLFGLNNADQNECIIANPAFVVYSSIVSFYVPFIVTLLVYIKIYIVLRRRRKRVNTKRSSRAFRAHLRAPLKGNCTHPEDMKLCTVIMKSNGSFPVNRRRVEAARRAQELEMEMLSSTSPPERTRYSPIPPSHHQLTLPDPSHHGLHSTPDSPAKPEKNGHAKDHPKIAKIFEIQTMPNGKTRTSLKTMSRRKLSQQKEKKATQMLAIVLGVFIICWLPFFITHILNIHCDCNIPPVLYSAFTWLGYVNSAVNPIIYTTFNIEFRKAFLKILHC
Put plainly: Dopamine D2 receptor binding assay (displacement of [125I]-iodospiperone). The following applies: saturation binding experiments, HEK293 D2 membranes. The procedure:
as §1
The pellets were stored at −80° C. until use. […] (Beckman Ultrazentrifuge XL 80).
as §2
b) Dopamine D2 Receptor Binding Assay
Non-specific binding was defined with 1 μM haloperidol.

Setting [1] is: membranes of HEK293 cells stably expressing h-5-HT6 receptor, 1 nM [3H]-LSD, read-out: Ki (5HT6).

With `Cc1ccc(NS(=O)(=O)c2cccc(OC(F)F)c2)cc1N1CCNCC1` [Example 1, 3-Difluoromethoxy-N-(4-methyl-3-piperazin-1-yl-phenyl)-benzenesulfonamide hydrochloride], the Ki on h-5-HT6 receptor was less than 20 nM. As to `Cc1ccc(NS(=O)(=O)c2ccccc2OC(F)F)cc1N1CCCNCC1` [Example 2, N-(3-[1,4]Diazepan-1-yl-4-methyl-phenyl)-2-difluoromethoxy-benzenesulfonamide hydrochloride], the Ki on h-5-HT6 receptor (setting [1]) was less than 50 nM.

In the case of `Cc1ccc(N(C)S(=O)(=O)c2cccc(OC(F)F)c2)cc1N1CCCNCC1` [Example 3, N-(3-[1,4]Diazepan-1-yl-4-methyl-phenyl)-3-difluoromethoxy-N-methyl-benzenesulfonamide hydrochloride], the Ki at h-5-HT6 receptor (setting [1]) was less than 250 nM.

Consider `Cc1ccc(NS(=O)(=O)c2cccc(OC(F)F)c2)cc1N1CCCNCC1` [Example 4, N-(3-[1,4]Diazepan-1-yl-4-methyl-phenyl)-3-difluoromethoxy-benzenesulfonamide hydrochloride], for which the Ki on h-5-HT6 receptor (setting [1]) is less than 20 nM. With `Cc1ccc(NS(=O)(=O)c2ccccc2OC(F)F)cc1N1CCCN(C)CC1` [Example 5, 2-Difluoromethoxy-N-[4-methyl-3-(4-methyl-[1,4]diazepan-1-yl)-phenyl]-benzenesulfonamide hydrochloride], on h-5-HT6 receptor (setting [1]), the Ki was less than 20 nM. iodospiperone [[^125I]-iodospiperone] came in with a Kd at dopamine D2 receptor of 0.22 nM.
